Data reported in US11572369B2, “Bicyclic pyridine compositions and methods of using the same for cancer therapy” (UNIVERSITY OF SOUTH CAROLINA, priority 2019, dated 2023).

Columns and labels:
Experiment in all cases: KINOMEscan
Assay type in all cases: binding
Conditions in all cases: 2000 nM
CLK1 = target: T1, CLK1 (Homo sapiens, UniProt P49759)
T1 construct: DNA label (for qPCR read-out); purchased DiscoveRx (KINOMEscan scanMAX service)

BMPR2 = target: T2, BMPR2 (Homo sapiens, UniProt Q13873)
T2 construct: DNA label (for qPCR read-out); purchased KINOMEscan scanMAX panel (DiscoveRx)

ROCK1 = target: T3, ROCK1 (Homo sapiens, UniProt Q13464)
T3 construct: DNA label (qPCR read-out); purchased DiscoveRx (KINOMEscan ScanMAX panel)

MAP3K1 = target: T4, MAP3K1 (Homo sapiens, UniProt Q13233)
T4 construct: DNA label (qPCR read-out); purchased DiscoverX (KINOMEscan service)

FGR = target: T5, FGR (Homo sapiens, UniProt P09769)
T5 construct: purchased DiscoveRx (KINOMEscan scanMAX panel)

[1] = target: T6, RSK3(Kin.Dom.1-N-terminal) (Homo sapiens, UniProt Q15349)
T6 construct: RSK3(Kin.Dom.1); purchased DiscoveRx (KINOMEscan scanMAX panel)

SNRK = target: T7, SNRK (Homo sapiens, UniProt Q9NRH2)
T7 construct: purchased KINOMEscan (DiscoveRx)

DRAK1 = target: T8, DRAK1 (Homo sapiens, UniProt Q9UEE5)
T8 construct: DNA label (qPCR read-out); purchased KINOMEscan (DiscoveRx) panel

DLK = target: T9, DLK (Homo sapiens, UniProt Q12852)
T9 construct: DNA label (qPCR read-out); purchased KINOMEscan (DiscoveRx) panel

[2] = target: ABL1(F317L)-nonphosphorylated (Homo sapiens, UniProt P00519, F317L)
EGFR(L858R,T790M) = target: T10, EGFR(L858R,T790M) (Homo sapiens, UniProt P00533, L858R/T790M)
T10 construct: purchased DiscoveRx (KINOMEscan scanMAX panel)

RIPK1 = target: T11, RIPK1 (Homo sapiens, UniProt Q13546)
T11 construct: DNA label (qPCR read-out); purchased DiscoveRx (KINOMEscan ScanMAX panel)

[3] = target: T12, RSK4(Kin.Dom.1-N-terminal) (Homo sapiens, UniProt Q9UK32)
T12 construct: RSK4(Kin.Dom.1); purchased DiscoveRx (KINOMEscan scanMAX panel)

CDK2 = target: T13, CDK2 (Homo sapiens, UniProt P24941)
T13 construct: purchased DiscoverX (KINOMEscan service)

TRPM6 = target: T14, TRPM6 (Homo sapiens, UniProt Q9BX84)
T14 construct: DNA label (for qPCR read-out); purchased DiscoveRx (KINOMEscan scanMAX panel)

YSK1 = target: T15, YSK1 (Homo sapiens, UniProt O00506)
T15 construct: purchased KINOMEscan (DiscoveRx) panel service

YANK1 = target: T16, YANK1 (Homo sapiens, UniProt Q8WU08)
T16 construct: purchased KINOMEscan (DiscoveRx) panel service

PRKCQ = target: T17, PRKCQ (Homo sapiens, UniProt Q04759)
T17 construct: purchased DiscoveRx (KINOMEscan scanMAX panel)

NEK4 = target: T18, NEK4 (Homo sapiens, UniProt P51957)
T18 construct: DNA label (qPCR read-out); purchased KINOMEscan (ScanMAX panel service)

PRKCD = target: T19, PRKCD (Homo sapiens, UniProt Q05655)
T19 construct: purchased DiscoveRx (KINOMEscan scanMAX panel)

LCK = target: T20, LCK (Homo sapiens, UniProt P06239)
T20 construct: purchased KINOMEscan (DiscoveRx) panel service

FLT3(D835Y) = target: T21, FLT3(D835Y) (Homo sapiens, UniProt P36888, D835Y)
T21 construct: purchased DiscoveRx (KINOMEscan scanMAX panel)

NEK2 = target: T22, NEK2 (Homo sapiens, UniProt P51955)
T22 construct: DNA label (qPCR read-out); purchased KINOMEscan (ScanMAX panel service)

[4] = target: T23, ABL1(E255K)-phosphorylated (Homo sapiens, UniProt P00519, E255K)
T23 construct: DNA label (qPCR read-out); purchased DiscoverX (KINOMEscan service)

p38-gamma = target: T24, p38-gamma (Homo sapiens, UniProt P53778)
T24 construct: purchased DiscoverX (KINOMEscan service)

PKN2 = target: T25, PKN2 (Homo sapiens, UniProt Q16513)
T25 construct: DNA label (qPCR read-out); purchased KINOMEscan (DiscoveRx) panel

CAMK2A = target: T26, CAMK2A (Homo sapiens, UniProt Q9UQM7)
T26 construct: DNA label (qPCR read-out); purchased KINOMEscan (ScanMAX panel service)

IKK-beta = target: T27, IKK-beta (Homo sapiens, UniProt O14920)
T27 construct: DNA label (qPCR read-out); purchased KINOMEscan (DiscoveRx) ScanMAX panel

NDR2 = target: T28, NDR2 (Homo sapiens, UniProt Q9Y2H1)
T28 construct: DNA label (for qPCR read-out); purchased KINOMEscan scanMAX panel (DiscoveRx)

PIK3CA(I800L) = target: T29, PIK3CA(I800L) (Homo sapiens, UniProt P42336, I800L)
T29 construct: DNA label; purchased DiscoveRx (KINOMEscan scanMAX panel)

MARK3 = MARK3 (Homo sapiens, UniProt P27448)
ITK = target: T30, ITK (Homo sapiens, UniProt Q08881)
T30 construct: DNA label (qPCR read-out); purchased KINOMEscan (DiscoveRx) ScanMAX panel

MYO3B = target: T31, MYO3B (Homo sapiens, UniProt Q8WXR4)
T31 construct: DNA label (for qPCR read-out); purchased KINOMEscan scanMAX panel (DiscoveRx)

TGFBR1 = target: T32, TGFBR1 (Homo sapiens, UniProt P36897)
T32 construct: DNA label (for qPCR read-out); purchased DiscoveRx (KINOMEscan scanMAX panel, contract assay)

PFTK1 = target: T33, PFTK1 (Homo sapiens, UniProt O94921)
T33 construct: DNA label (for qPCR read-out); purchased DiscoveRx (KINOMEscan scanMAX service)

T28 sequence (Q9Y2H1 whole entry): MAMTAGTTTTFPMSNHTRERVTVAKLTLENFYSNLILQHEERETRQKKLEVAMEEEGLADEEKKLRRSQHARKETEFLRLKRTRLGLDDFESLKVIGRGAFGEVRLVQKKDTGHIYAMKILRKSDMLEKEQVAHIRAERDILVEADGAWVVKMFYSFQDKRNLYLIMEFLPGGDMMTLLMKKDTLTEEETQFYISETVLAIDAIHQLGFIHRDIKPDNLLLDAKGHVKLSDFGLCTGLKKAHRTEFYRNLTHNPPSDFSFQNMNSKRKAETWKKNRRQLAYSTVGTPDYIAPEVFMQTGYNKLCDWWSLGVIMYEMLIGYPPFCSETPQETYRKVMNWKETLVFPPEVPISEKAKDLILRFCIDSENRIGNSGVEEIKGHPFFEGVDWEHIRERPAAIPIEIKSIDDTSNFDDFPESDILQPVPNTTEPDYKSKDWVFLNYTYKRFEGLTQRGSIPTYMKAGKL
T5 sequence (P09769 whole entry): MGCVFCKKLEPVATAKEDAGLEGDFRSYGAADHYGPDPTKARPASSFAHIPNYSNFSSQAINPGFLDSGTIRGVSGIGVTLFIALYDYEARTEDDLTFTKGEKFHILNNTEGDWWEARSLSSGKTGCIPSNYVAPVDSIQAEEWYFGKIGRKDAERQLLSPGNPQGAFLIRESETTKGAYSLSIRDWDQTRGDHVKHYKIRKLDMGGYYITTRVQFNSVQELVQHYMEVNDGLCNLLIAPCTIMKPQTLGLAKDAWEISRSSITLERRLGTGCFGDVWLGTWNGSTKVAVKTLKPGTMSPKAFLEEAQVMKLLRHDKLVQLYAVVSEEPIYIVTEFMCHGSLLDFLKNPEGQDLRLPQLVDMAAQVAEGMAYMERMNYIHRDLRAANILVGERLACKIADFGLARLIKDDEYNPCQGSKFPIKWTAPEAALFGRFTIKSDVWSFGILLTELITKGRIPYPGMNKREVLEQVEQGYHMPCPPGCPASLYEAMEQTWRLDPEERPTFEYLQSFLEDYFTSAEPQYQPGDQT
T7 sequence (Q9NRH2 whole entry): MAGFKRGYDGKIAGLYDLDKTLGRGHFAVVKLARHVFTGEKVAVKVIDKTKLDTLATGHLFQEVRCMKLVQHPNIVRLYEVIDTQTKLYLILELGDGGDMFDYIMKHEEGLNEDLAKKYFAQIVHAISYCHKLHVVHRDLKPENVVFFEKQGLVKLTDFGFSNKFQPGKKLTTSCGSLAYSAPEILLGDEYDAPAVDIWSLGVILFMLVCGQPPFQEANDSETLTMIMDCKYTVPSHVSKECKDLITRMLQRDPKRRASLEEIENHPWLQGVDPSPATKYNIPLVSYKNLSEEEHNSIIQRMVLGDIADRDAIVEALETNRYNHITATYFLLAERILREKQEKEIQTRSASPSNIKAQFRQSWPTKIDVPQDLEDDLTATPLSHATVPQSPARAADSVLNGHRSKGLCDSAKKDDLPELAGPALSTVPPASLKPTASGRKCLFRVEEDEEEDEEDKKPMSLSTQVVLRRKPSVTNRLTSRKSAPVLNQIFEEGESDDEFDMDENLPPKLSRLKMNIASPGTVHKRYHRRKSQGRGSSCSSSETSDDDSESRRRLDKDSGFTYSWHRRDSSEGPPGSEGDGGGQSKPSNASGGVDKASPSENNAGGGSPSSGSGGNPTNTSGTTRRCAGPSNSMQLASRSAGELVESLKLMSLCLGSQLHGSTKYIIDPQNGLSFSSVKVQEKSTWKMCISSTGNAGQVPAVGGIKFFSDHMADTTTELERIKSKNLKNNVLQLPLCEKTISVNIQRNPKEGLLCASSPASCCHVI
T9 sequence (Q12852 whole entry): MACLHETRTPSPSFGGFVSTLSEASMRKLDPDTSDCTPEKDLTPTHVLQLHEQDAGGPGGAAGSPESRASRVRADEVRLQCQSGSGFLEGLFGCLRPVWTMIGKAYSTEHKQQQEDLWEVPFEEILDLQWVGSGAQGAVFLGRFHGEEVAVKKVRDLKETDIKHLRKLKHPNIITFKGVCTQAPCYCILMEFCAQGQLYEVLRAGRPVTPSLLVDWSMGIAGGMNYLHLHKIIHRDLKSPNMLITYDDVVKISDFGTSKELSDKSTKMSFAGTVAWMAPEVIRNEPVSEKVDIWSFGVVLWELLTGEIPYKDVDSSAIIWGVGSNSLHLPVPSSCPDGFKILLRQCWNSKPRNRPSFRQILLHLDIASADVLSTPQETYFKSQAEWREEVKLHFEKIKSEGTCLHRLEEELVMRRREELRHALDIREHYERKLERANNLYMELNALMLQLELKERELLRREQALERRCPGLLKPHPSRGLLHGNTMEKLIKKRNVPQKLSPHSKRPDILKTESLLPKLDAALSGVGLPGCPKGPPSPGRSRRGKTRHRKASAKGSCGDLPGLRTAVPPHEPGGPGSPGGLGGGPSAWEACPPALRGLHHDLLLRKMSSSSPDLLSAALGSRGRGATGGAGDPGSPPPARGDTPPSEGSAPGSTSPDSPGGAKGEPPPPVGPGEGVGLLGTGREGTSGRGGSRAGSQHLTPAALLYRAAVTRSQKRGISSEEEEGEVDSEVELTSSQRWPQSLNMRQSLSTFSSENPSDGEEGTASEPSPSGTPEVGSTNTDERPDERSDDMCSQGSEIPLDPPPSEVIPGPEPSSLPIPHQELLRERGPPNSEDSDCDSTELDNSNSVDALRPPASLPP
Sequence of MARK3 (P27448 whole entry): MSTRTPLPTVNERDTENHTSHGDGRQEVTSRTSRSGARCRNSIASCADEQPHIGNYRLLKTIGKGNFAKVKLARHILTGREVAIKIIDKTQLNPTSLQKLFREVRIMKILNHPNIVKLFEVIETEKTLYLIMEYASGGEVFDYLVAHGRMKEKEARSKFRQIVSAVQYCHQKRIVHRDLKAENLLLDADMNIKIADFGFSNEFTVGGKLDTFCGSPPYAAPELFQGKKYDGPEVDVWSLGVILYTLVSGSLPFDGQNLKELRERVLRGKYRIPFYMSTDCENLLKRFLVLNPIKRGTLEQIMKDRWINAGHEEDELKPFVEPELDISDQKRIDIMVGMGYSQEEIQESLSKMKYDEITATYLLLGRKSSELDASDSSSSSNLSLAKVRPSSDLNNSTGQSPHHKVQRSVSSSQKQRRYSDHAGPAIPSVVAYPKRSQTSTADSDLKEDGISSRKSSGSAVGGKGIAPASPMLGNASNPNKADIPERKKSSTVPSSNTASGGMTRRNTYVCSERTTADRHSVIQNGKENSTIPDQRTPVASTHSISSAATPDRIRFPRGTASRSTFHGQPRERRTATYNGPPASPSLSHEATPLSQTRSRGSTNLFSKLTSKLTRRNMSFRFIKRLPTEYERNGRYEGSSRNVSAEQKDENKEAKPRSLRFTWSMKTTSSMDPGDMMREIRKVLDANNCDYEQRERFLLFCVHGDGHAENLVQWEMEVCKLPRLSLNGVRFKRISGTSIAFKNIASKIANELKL
Sequence of ABL1(F317L)-nonphosphorylated (P00519 whole entry F317L): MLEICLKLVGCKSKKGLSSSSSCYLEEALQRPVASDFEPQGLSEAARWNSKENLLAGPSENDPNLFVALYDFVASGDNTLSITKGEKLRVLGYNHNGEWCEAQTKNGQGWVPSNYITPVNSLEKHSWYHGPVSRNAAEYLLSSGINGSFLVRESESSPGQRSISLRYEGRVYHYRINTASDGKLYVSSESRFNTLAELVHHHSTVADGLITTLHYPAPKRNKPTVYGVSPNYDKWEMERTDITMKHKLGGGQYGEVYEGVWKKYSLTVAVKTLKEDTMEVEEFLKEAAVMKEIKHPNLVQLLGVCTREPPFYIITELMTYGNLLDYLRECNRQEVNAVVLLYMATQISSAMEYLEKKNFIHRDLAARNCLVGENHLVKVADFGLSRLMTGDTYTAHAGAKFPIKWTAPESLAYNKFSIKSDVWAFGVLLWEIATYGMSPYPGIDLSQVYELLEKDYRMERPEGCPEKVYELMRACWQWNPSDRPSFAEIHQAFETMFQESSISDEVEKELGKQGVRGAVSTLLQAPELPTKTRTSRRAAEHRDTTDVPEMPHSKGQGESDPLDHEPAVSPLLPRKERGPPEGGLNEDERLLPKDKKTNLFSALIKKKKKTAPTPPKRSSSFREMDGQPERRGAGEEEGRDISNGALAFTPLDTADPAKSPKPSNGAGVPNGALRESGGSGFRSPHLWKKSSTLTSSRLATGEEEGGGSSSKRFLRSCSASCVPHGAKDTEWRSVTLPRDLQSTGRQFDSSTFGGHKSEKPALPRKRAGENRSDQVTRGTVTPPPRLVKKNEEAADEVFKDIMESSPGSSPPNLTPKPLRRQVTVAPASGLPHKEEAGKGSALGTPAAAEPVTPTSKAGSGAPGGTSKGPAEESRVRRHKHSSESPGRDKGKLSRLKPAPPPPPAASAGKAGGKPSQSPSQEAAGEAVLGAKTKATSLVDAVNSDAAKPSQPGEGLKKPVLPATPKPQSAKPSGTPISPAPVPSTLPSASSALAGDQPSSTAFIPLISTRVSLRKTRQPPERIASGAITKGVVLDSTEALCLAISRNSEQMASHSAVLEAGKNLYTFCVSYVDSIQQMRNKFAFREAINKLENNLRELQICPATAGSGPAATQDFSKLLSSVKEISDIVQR
T1 sequence (P49759 whole entry): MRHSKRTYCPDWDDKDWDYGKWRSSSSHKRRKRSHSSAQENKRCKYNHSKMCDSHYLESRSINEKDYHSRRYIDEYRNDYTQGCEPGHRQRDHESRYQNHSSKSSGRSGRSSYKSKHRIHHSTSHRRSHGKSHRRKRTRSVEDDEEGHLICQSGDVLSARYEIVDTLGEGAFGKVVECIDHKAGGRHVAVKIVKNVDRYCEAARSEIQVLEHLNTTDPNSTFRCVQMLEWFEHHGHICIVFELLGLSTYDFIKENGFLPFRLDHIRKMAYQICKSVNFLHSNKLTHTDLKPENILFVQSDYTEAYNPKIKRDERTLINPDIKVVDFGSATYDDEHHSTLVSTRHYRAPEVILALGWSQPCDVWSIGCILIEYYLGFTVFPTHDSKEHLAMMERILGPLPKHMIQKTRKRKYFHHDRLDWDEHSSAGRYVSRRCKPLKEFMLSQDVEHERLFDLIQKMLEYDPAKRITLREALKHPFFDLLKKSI
T23 sequence (P00519 whole entry E255K): as the sequence (P00519 whole entry F317L) above, with E255K, L317F counted along it

Row | Compound | % Ctrl (CLK1) | % Ctrl (BMPR2) | % Ctrl (ROCK1) | % Ctrl (MAP3K1) | % Ctrl (FGR) | % Ctrl [1] | % Ctrl (SNRK) | % Ctrl (DRAK1) | % Ctrl (DLK) | % Ctrl [2] | % Ctrl (EGFR(L858R,T790M)) | % Ctrl (RIPK1) | % Ctrl [3] | % Ctrl (CDK2) | % Ctrl (TRPM6) | % Ctrl (YSK1) | % Ctrl (YANK1) | % Ctrl (PRKCQ) | % Ctrl (NEK4) | % Ctrl (PRKCD) | also measured
1 | CN(C)C(=O)c1ccc(N2CCCN(c3ccnc4sc(C(N)=O)c(N)c34)CC2)cc1 [15u, 3-amino-4-(4-(4-(dimethylcarbamoyl)phenyl)-1,4-diazepan-1-yl)thieno[2,3-b]pyridine-2-carboxamide] | 88 % Ctrl | 79 % Ctrl | 77 % Ctrl | 84 % Ctrl | 100 % Ctrl | 99 % Ctrl | 100 % Ctrl | 100 % Ctrl | 93 % Ctrl | 99 % Ctrl | 100 % Ctrl | 99 % Ctrl | 78 % Ctrl | 100 % Ctrl | 100 % Ctrl | 76 % Ctrl | 89 % Ctrl | 90 % Ctrl | 100 % Ctrl | 100 % Ctrl | % Ctrl (LCK): 91 % Ctrl; % Ctrl (FLT3(D835Y)): 46 % Ctrl; % Ctrl (NEK2): 95 % Ctrl; % Ctrl [4]: 100 % Ctrl; % Ctrl (p38-gamma): 98 % Ctrl; % Ctrl (PKN2): 100 % Ctrl; % Ctrl (CAMK2A): 90 % Ctrl; % Ctrl (IKK-beta): 89 % Ctrl; % Ctrl (NDR2): 99 % Ctrl; % Ctrl (PIK3CA(I800L)): 97 % Ctrl; % Ctrl (MARK3): 98 % Ctrl; % Ctrl (ITK): 88 % Ctrl; % Ctrl (MYO3B): 87 % Ctrl; % Ctrl (TGFBR1): 100 % Ctrl; % Ctrl (PFTK1): 96 % Ctrl
2 | [2H]C([2H])([2H])N(C(=O)c1ccc(N2CCCN(c3ccnc4sc(C(N)=O)c(N)c34)CC2)cc1)C([2H])([2H])[2H] [15u_D6, 3-amino-4-(4-(4-(bis(methyl-d3)carbamoyl)phenyl)-1,4-diazepan-1-yl)thieno[2,3-b]pyridine-2-carboxamide] | 68 % Ctrl | 88 % Ctrl | 67 % Ctrl | 90 % Ctrl | 100 % Ctrl | 77 % Ctrl | 75 % Ctrl | 100 % Ctrl | 89 % Ctrl | 100 % Ctrl | 87 % Ctrl | 100 % Ctrl | 80 % Ctrl | 99 % Ctrl | 80 % Ctrl | 98 % Ctrl | 97 % Ctrl | 87 % Ctrl | 95 % Ctrl | 92 % Ctrl | % Ctrl (LCK): 100 % Ctrl; % Ctrl (FLT3(D835Y)): 100 % Ctrl; % Ctrl (NEK2): 95 % Ctrl; % Ctrl [4]: 82 % Ctrl; % Ctrl (p38-gamma): 100 % Ctrl; % Ctrl (PKN2): 100 % Ctrl; % Ctrl (CAMK2A): 100 % Ctrl; % Ctrl (IKK-beta): 71 % Ctrl; % Ctrl (NDR2): 36 % Ctrl; % Ctrl (PIK3CA(I800L)): 74 % Ctrl; % Ctrl (MARK3): 100 % Ctrl; % Ctrl (ITK): 87 % Ctrl; % Ctrl (MYO3B): 100 % Ctrl; % Ctrl (TGFBR1): 100 % Ctrl; % Ctrl (PFTK1): 100 % Ctrl
